3 compounds from US6403363B1, “Method of preservation of vaccines with polybiguanide” (priority 1997, dated 2002) can be followed below.

One series concerns seed virus grown in eggs. Further details: species or system influenza virus.
A short description of series [1]: Visible effect of preservative on allantoic fluid. Type of series: physicochemical. Conditions: preservative 0.1%. The source says:
The preserved samples were also examined to determine the visible effect on allantoic fluid, and the results are shown in Table 4 below.

Like-named read-outs stand apart in the source and are kept apart here.

In the case of `O=[N+]([O-])C(Br)(CO)CO` [bronopol, 2-bromo-2-nitropropan-1,2-diol], the “Infectivities (summary)” value in the series on seed virus grown in eggs (0.1% preservative) is “Unsatisfactory”. The “effect on egg infectivities” value in the series on seed virus grown in eggs (compared with Cosmocil CQ and thiomersal, 0.1% bronopol, 0.4% Biopure) is “pronounced negative effect”. The “Log egg infective doses/ml” value in the series on seed virus grown in eggs (virus seed + 0.1% preservative) was <5.4 log egg infective doses/ml.
Regarding `C[CH2][Hg][S]c1ccccc1C(=O)[O-].[Na+]` [thiomersal, sodium ethylmercurithiosalicylate], in the series on seed virus grown in eggs (virus seed + 0.01% preservative), the “Log egg infective doses/ml” value was determined as 8.2.
Consider `O=[N+]([O-])C(Br)(CO)CO` [Nipaguard BNPD], for which the “Effect on allantoic fluid (visible)” value in series [1] was “No effect”.
